# According to paper PMC5444710, “Enhancement of radiosensitivity by the novel anticancer quinolone derivative vosaroxin in preclinical glioblastoma models” (Oncotarget, 2017):
# Tests used:
# A172 cells = test: Clonogenic survival assay; format: cell-based, human
# Procedure: (§1) For clonogenic survival assays, exponentially growing cells (70% confluence) were cultured in regular media and treated with vosaroxin, at the appropriate concentrations, or vehicle (final dimethyl sulfoxide concentration of 0.1%) for 48 hours. Tumor cells were then irradiated at room temperature with increasing doses of radiation (0–6 Gy) using an x-ray linear accelerator (dose rate of 200 cGy/min). Nonirradiated controls were handled identically to the irradiated cells with the exception of the radiation exposure. […] […] Colonies containing more than 50 cells were counted. The plating efficiency was calculated as the number of colonies observed divided by the number of cells plated. The surviving fraction was calculated as the number of colonies formed in the treated dishes compared with the number formed in the control. The survival curves were analyzed using SPSS statistical software (Chicago, IL, USA) by means of a fit of the data by a weighted, stratified, linear regression, according to the linear-quadratic formula: S(D)/S(O) = exp-(αD + βD2). The cell survival enhancement ratio was calculated as the ratio of the mean inactivation dose under control conditions divided by the mean inactivation dose after treatment as previously described.
# U251 cells = test: Clonogenic survival assay; format: cell-based, human
# Procedure: as §1
# U87MG cells = test: Clonogenic survival assay; format: cell-based, human
# Procedure: as §1
# T98G cells = test: Clonogenic survival assay; format: cell-based, human
# Procedure: as §1
# GBM cell lines = test: Clonogenic survival assays (abstract statement); format: cell-based; conditions: Homo sapiens
# Procedure: For clonogenic survival assays, exponentially growing cells (70% confluence) were cultured in regular media and treated with vosaroxin, at the appropriate concentrations, or vehicle (final dimethyl sulfoxide concentration of 0.1%) for 48 hours. Tumor cells were then irradiated at room temperature with increasing doses of radiation (0–6 Gy) using an x-ray linear accelerator (dose rate of 200 cGy/min). Nonirradiated controls were handled identically to the irradiated cells with the exception of the radiation exposure. […] Colonies containing more than 50 cells were counted. The plating efficiency was calculated as the number of colonies observed divided by the number of cells plated. The surviving fraction was calculated as the number of colonies formed in the treated dishes compared with the number formed in the control. The survival curves were analyzed using SPSS statistical software (Chicago, IL, USA) by means of a fit of the data by a weighted, stratified, linear regression, according to the linear-quadratic formula: S(D)/S(O) = exp-(αD + βD2). The cell survival enhancement ratio was calculated as the ratio of the mean inactivation dose under control conditions divided by the mean inactivation dose after treatment as previously described.
# [1] = system: 13 human glioma cell lines and three patient-derived glioblastoma stem cell lines; test: Cell viability / growth inhibition, whole panel; format: cell-based
# Procedure: Cells were seeded at a density of 2 × 10^4 cells/mL in 24-well plates. Cells were […] to attach and grow in 5% fetal bovine serum in DMEM for 24 hours. Cells were treated with different doses of radiation or temozolomide and then maintained in the appropriate culture conditions. At the conclusion of the treatment period, cells were trypsinized and resuspended in 1.0 mL of saline; viable cells were counted using the NucleoCounter^TM NC-100 (Chemotec, […], Denmark). All experiments were conducted in triplicate. IC50 values were calculated using GraFit (Erithacus Software Limited, Staines, UK).
# [2] = system: U87MG, U251, and T98G xenografts; test: iNOS and arginase-1 expression in xenograft tissue extracts; format: in vivo, female CD1-nu/nu mice; conditions: tissue extracts from U87MG
# Procedure: (§2) After appropriate treatments, tumor cell cultures and tissues were harvested for analysis of cytokine expression. Cell pellets were washed with PBS and lysed with RIPA buffer. Cell lysates and conditioned media were assayed by ELISA to measure (i) active human caspase-3 (CBA045, Merck Chemicals Ltd., Nottingham, UK), (ii) beclin-1 (E98557Hu, USCN Life Sciences, Houston, TX, USA), and (iii) DNA damage (EpiQuik in situ DNA Damage Assay Kit, Epigentek, Farmingdale, NY, USA). Tumor extracts were analyzed for the presence of:
# • MMP-2 (KHC3081) • TNF-α (KHC3011, Life Technologies Italia, Monza, Italy) • CXCR4 (Cyto Glow CXCR4 [pSer339], cell-based ELISA, Assay Biotech, Sunnyvale, CA, USA) • Human Fas ligand (ELH-FASL, RayBiotech, Norcross, GA, USA) • IL-6 (orb50052) and survivin (orb50135) (Biorbyt) • TGF-β1 (Quantikine ELISA Kit, DB100B, R&D Systems, Minneapolis, MN, USA) • SDF-1α (Human CXCL12/SDF-1α Quantikine ELISA Kit, DSA00, R&D Systems) • Mouse IL-10 DuoSet ELISA DY417 (R&D Systems Minneapolis, MN, USA) • Mouse NOS2 / iNOS ELISA Kit (Sandwich ELISA) - LS-F12166 (LifeSpan Biosciences, Inc, Seattle, WA, USA) • Mouse ARG1 / Arginase-1 ELISA Kit (Sandwich ELISA) - LS-F10883 (LifeSpan Biosciences, Inc, Seattle, WA, USA)
# caspase-3 = test: Caspase-3 activity (ELISA); format: cell-based, human; conditions: addition of vosaroxin (IC20) to RT
# Procedure: as §2, with “USA).” for “USA). Tumor extracts were analyzed for the presence of:”
# [3] = concentration equal to IC20, analyzed at 21 days of culture
# [4] = irradiated 2, 4, 6 Gy 48 hours after drug exposure, calculated at a surviving fraction of 0.10
compound,measurement,setting,value
CN[C@H]1CN(c2ccc3c(=O)c(C(=O)O)cn(-c4nccs4)c3n2)C[C@@H]1OC [vosaroxin],"surviving fraction, vosaroxin alone",A172 cells; [3],0.87 ± 0.18
same,dose enhancement factor,A172 cells; [4],1.24
same,"surviving fraction, vosaroxin alone",U251 cells; [3],0.80 ± 0.064
same,dose enhancement factor,U251 cells; [4],1.33
same,"surviving fraction, vosaroxin alone",U87MG cells; [3],0.77 ± 0.18
same,dose enhancement factor,U87MG cells; [4],1.55
same,"surviving fraction, vosaroxin alone",T98G cells; [3],0.84 ± 0.036
same,dose enhancement factor,T98G cells; [4],1.40
same,IC50,GBM cell lines,10 to 100 nM
same,IC20,"[1]; Glioma cell, glioma cells used in clonogenic studies, read-out: IC20 values in growth inhibition assays, range",10 to 100 nM
same,IC50,"[1]; read-out: IC50 values, range over all cell lines tested",12.8 to 260 nM
same,arginase-1 expression (M2 marker),[2],low expression
same,iNOS expression (M1 marker),[2],high expression
same,caspase-3 activity,caspase-3,increased
